Assay [1] has as its target Tyrosine-protein kinase Blk (Homo sapiens) (UniProt P51451). Nature of the assay: Selectivity interaction (ProQinase) EUB0000171b BLK.
Assay [2] addresses Phosphatidylinositol 4-kinase beta (Homo sapiens, UniProt Q9UBF8). Briefly: Selectivity interaction (Ambit KINOMEscan and KiNATiv profiling in Jurkat cells) EUB0000090b PI4KB. Type of assay: cell-based. Conditions: at 1 µM.
Assay [3] addresses T1, Tyrosine-protein kinase Mer (Homo sapiens) (UniProt Q12866).
T1 sequence (whole entry): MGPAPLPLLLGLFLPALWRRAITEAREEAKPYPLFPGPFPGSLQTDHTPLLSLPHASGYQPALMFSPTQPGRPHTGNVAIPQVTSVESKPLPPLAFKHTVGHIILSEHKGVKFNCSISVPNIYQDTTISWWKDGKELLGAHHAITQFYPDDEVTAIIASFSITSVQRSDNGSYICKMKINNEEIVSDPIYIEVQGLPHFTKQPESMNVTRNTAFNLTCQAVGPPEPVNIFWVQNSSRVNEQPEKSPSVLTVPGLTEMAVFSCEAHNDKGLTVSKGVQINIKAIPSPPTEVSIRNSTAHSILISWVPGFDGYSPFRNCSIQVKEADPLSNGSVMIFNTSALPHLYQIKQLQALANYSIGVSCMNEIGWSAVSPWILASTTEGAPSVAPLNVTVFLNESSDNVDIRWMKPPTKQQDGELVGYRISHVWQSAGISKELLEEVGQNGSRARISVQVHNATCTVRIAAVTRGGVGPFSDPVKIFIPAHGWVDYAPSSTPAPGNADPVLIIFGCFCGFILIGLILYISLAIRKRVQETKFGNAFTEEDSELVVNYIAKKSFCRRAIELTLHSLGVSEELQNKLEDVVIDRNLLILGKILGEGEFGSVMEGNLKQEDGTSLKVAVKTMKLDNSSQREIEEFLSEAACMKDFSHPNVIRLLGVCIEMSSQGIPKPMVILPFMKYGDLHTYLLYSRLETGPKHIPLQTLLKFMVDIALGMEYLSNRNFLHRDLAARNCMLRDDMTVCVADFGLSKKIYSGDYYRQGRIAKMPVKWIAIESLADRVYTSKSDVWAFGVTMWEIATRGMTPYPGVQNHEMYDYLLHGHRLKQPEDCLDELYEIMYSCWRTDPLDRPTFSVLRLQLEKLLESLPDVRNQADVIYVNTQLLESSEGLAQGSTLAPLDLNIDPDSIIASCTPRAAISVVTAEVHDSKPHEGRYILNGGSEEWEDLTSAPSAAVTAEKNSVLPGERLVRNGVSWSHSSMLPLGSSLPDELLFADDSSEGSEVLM
Briefly: Selectivity interaction (Ambit KINOMEscan and KiNATiv profiling in Jurkat cells) EUB0000090b MERTK. Type of assay: cell-based. Conditions: at 1 µM.

Assay [4] concerns the target T2, Inhibitor of nuclear factor kappa-B kinase subunit alpha (Homo sapiens) (UniProt O15111).
T2 sequence (whole entry): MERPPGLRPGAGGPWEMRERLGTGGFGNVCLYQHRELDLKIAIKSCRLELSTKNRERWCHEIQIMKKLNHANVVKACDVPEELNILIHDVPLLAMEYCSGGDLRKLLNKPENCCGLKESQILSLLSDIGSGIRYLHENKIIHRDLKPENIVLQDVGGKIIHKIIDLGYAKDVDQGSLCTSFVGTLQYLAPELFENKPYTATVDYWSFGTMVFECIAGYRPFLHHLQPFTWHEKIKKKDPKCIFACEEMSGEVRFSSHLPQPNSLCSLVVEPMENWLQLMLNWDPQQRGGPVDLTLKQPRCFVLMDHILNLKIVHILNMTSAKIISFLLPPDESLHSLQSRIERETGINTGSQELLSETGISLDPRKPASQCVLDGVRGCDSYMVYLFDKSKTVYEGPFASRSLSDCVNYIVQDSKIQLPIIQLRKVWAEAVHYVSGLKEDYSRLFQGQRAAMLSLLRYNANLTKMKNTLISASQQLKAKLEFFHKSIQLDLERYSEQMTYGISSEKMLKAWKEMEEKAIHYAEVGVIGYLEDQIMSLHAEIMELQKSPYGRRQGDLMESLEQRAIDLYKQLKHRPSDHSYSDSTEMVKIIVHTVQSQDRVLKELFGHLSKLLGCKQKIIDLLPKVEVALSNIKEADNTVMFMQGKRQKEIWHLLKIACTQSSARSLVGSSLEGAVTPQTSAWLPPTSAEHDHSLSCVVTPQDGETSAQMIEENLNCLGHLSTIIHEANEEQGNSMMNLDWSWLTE
Briefly: Selectivity interaction (KinomeScan (DiscoverX)) EUB0000092b CHUK. Conditions: at 10 µM.

Assay [5] deals with T3, Tyrosine-protein kinase ITK/TSK (Homo sapiens) (UniProt Q08881).
T3 sequence (whole entry): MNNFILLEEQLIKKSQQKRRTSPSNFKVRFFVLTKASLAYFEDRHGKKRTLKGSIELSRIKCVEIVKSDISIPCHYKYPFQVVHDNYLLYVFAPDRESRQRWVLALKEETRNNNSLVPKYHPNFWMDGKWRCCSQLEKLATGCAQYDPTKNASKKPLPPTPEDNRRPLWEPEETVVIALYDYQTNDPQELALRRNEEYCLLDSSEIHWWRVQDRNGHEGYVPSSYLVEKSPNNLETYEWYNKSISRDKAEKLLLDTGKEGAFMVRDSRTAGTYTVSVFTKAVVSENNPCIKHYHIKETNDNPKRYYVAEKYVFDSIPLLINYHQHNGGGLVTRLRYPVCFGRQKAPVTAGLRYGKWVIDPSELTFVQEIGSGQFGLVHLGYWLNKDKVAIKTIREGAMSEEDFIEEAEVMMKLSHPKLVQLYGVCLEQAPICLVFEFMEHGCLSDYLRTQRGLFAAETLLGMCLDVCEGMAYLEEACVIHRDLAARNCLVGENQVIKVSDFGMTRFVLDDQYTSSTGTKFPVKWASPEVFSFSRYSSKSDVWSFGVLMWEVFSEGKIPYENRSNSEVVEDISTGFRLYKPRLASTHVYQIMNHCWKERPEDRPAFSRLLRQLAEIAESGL
Briefly: Selectivity interaction (KinomeScan (DiscoverX)) EUB0001049a ITK. Conditions: at 1 µM.

Assay [6] addresses Serine/threonine-protein kinase PAK 2 (Homo sapiens) (UniProt Q13177). Briefly: Selectivity interaction (KinomeScan (DiscoverX)) EUB0000695a PAK2. Conditions: at 100 nM.
Assay [7] has as its target Dual specificity mitogen-activated protein kinase kinase 1 (Homo sapiens, UniProt Q02750). Nature of the assay: Selectivity interaction (Kinase panel (Invitrogen)) EUB0000639a MAP2K1. Conditions: at 200 nM.
For assay [8], the target named is Vascular endothelial growth factor receptor 2 (Homo sapiens, UniProt P35968). Briefly: Selectivity interaction (KinomeScan (DiscoverX)) EUB0000595a KDR. Conditions: at 10 µM.
Sequence of Vascular endothelial growth factor receptor 2 (P35968 whole entry): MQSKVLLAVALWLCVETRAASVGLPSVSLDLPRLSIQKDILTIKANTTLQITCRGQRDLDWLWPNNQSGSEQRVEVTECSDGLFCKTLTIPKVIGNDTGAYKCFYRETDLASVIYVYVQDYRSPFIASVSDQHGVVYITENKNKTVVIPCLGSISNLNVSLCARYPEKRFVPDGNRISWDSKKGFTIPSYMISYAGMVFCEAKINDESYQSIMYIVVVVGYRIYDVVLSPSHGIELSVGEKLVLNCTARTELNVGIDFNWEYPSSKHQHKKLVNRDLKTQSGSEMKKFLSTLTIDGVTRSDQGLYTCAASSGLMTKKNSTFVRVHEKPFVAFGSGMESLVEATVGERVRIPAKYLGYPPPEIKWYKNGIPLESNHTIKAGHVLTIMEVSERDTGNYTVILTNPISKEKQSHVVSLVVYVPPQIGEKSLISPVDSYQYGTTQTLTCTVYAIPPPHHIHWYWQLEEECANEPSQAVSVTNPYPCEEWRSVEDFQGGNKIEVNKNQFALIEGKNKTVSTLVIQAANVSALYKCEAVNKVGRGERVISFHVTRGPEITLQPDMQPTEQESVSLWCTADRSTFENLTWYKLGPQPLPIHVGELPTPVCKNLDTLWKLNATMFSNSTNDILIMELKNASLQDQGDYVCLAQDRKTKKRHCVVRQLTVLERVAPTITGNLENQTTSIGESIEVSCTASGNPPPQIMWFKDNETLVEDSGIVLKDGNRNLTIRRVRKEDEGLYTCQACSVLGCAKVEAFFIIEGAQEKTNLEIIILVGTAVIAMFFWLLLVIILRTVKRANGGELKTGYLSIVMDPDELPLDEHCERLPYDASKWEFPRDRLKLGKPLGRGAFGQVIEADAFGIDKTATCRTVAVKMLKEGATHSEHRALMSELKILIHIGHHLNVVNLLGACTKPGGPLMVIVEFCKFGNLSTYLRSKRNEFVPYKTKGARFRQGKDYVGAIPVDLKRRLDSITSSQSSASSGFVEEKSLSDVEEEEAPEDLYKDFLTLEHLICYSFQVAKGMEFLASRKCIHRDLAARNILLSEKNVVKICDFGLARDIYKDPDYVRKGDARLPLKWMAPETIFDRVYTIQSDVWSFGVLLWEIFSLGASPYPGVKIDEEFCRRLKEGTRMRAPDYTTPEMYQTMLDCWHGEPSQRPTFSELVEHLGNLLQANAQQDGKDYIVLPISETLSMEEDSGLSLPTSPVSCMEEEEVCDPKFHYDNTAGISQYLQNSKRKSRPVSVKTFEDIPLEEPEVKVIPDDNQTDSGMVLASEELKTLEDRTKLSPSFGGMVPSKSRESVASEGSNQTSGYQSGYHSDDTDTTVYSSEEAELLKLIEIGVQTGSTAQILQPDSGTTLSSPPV

Sequence of Tyrosine-protein kinase Blk (Homo sapiens) (P51451 2-505 limits assumed): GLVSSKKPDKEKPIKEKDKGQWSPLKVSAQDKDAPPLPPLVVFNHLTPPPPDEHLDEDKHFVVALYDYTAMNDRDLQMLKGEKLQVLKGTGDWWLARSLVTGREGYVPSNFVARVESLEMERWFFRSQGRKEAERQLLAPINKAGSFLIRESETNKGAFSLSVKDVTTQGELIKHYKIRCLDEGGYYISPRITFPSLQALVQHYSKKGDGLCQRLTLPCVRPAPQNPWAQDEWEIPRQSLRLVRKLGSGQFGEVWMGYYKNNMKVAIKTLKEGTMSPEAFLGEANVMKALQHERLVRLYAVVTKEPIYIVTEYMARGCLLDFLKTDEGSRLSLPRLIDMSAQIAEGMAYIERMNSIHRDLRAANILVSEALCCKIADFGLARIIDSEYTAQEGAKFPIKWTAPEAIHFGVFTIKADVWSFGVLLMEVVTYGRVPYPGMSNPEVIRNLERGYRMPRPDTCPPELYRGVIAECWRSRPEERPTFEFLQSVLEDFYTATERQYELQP
Sequence of Serine/threonine-protein kinase PAK 2 (Homo sapiens) (Q13177 whole entry): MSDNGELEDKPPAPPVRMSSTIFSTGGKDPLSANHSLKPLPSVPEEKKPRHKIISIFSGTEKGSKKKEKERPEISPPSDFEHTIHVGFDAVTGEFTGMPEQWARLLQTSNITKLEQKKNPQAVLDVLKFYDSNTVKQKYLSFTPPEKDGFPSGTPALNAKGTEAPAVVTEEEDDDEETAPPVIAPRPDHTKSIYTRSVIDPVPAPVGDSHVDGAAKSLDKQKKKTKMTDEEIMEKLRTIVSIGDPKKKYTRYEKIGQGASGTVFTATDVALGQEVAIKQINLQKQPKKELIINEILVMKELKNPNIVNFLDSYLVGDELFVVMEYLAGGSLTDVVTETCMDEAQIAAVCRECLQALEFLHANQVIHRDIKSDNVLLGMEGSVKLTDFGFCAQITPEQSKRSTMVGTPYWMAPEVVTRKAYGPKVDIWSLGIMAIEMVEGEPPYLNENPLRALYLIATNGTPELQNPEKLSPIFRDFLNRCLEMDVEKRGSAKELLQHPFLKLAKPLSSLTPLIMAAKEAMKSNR
Sequence of Dual specificity mitogen-activated protein kinase kinase 1 (Q02750 whole entry): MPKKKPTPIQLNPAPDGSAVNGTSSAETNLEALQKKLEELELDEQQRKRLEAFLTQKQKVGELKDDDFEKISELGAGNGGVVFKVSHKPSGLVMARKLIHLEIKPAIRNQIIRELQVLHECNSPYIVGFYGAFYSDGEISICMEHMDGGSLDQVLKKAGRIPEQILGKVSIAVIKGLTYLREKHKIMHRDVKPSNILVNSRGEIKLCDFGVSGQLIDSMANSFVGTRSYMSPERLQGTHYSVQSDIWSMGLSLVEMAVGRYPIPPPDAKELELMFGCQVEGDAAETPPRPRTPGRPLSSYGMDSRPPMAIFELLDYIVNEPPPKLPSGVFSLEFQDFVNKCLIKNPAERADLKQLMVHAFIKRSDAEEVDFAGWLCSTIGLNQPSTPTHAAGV
Sequence of Phosphatidylinositol 4-kinase beta (Q9UBF8 2-816 limits assumed): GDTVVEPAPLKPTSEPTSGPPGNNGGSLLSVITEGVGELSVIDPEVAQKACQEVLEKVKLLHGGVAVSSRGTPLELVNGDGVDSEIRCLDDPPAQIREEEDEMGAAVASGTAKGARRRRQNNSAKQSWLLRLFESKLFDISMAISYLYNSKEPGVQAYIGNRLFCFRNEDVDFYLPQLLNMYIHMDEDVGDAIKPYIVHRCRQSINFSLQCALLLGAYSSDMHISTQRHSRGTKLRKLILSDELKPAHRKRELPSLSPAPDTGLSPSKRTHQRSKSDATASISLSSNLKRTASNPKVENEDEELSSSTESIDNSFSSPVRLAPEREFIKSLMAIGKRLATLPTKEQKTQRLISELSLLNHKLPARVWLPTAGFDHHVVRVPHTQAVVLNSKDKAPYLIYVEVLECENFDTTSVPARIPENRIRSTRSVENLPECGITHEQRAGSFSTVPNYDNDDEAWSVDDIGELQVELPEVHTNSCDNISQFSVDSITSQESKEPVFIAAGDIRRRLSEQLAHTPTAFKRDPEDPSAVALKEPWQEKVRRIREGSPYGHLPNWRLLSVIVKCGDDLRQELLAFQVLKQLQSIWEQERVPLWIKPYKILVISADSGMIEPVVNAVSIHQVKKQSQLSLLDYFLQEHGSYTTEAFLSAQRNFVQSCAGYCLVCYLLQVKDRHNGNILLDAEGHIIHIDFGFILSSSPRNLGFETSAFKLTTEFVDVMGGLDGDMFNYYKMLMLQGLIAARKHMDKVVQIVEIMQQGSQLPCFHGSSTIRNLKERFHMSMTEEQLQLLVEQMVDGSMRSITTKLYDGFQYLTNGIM

Take `C=CC(=O)Nc1cccc(C(=O)Nc2ccc(Nc3cc(-c4[nH]c(SC)nc4C)ccn3)cc2)c1`: the results for the % of control in assay [1] (at 1 µM) and in assay [1] (at 5 µM) were 77% and 81%, respectively.
As for `CN(C)C/C=C/C(=O)Nc1ccc(C(=O)N2CCCC(Nc3ncc(Cl)c(-c4c[nH]c5ccccc45)n3)C2)cc1` (centres undefined), the % of control turned out to be 88% in assay [2] and 61% in assay [3].
For the molecule `CCC(=O)N1CCN(c2ccc(-n3c(=O)ccc4cnc5ccc(-c6cnc7ccccc7c6)cc5c43)cc2C(F)(F)F)CC1`, the % of control in assay [4] is 41%.
Turning to `COc1cc(Nc2nc(C)cc(-c3cnn4nc(OC)ccc34)n2)cc(C(F)(F)F)c1`, the % of control in assay [5] was 82%.
In assay [6], `Cc1cc(F)c(C(=O)Nc2cccc(-c3nncn3C(C)C)n2)cc1-n1cnc(C2CC2)c1` displayed a % of control of 100%.
`CC[C@@H]1[C@H](F)C(=O)N[C@@H]1COc1nccc2cc(C(N)=O)c(OC)cc12` [ZIMLOVISERTIB] registered a % of inhibition in assay [7] of 24.2%.
Turning to `COCC(=O)NC/C=C/c1ccc2ncnc(Nc3ccc(Oc4ccc(C)nc4)c(C)c3)c2c1` [CP-724714], in assay [8], the % of control worked out at 100%.

The values above are taken from ChEMBL document CHEMBL5465560, “Selectivity Literature for EUbOPEN Chemogenomic Library” (2024).
